Assay results as given in patent US5446049A, “Azanoradamantanes for treatment of conditions responsive to 5-HT agonists and/or antagonists” (priority 1994, dated 1995).

How the values were obtained:
5-HT3 receptor = target: T1, 5-HT3 receptor (Rattus norvegicus, UniProt P35563); assay: 5-HT3 radioligand receptor binding assay ([3H]-GR65630, rat brain cortex membranes)
T1 construct: Brain cortices were obtained from male rats and a membrane fraction prepared by standard techniques; from tissue; host or cells: rat brain cortex membranes
T1 sequence (P35563 24-483): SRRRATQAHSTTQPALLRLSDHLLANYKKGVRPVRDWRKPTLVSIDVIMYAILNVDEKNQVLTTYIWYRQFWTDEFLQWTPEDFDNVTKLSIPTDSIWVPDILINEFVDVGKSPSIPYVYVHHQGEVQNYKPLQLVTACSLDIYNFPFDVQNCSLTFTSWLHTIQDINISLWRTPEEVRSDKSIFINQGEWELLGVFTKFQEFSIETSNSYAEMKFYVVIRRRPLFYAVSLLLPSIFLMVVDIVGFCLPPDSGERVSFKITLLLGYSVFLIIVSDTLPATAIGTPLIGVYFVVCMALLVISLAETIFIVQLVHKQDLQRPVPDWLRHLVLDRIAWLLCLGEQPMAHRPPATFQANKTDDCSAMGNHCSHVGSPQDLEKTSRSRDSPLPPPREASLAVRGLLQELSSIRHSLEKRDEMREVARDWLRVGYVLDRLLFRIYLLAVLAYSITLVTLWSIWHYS
Protocol: (§1) (Baxter et al., Naunyn Schmied Arch. Pharmacol, 1991, 343, 439). […] One with skill in the art could determine the activity of the compounds of the present invention using the methodology of these assays, described herein, without undue experimentation.
Procedure: GR65630 binds to the 5-HT3 receptor. Brain cortices were obtained from male rats and a membrane fraction prepared by standard techniques. 0.04 mg of membrane prep was incubated with 0.2 nM [^3 H]-GR65630 for 66 minutes at 22° C. […] Membranes were filtered and washed 3 times and the filters were counted to determine [^3 H]-GR65630 specifically bound. (Kilpatrick G. J., Jones B. J. and Tyers M. B., Identification and Distribution of 5-HT3 Receptors in Rat Brain Using Radioligand Binding Assay, Nature, 330, 746-748 (1987)).

5-HT4 receptor [1] = target: T2, 5-HT4 receptor (Rattus norvegicus, UniProt Q62758); format: cell-based; details: Table I; tissues from 5 rats; carbachol 3 μM; read-out: 5-HT4 Agonism (Rat TMM) In Vitro Assay: EC50 values
T2 construct: The inner tunica muscularis mucosa was mounted under 0.2-0.3 g of tension in a tissue bath; from tissue; host or cells: rat intrathoracic oesophagus, tunica muscularis mucosae
Text: as §1
One 2 cm segment of intrathoracic esophagus proximal to the diaphragm was removed from male rats, weighing approximately 300 gm, and the outer muscle layers removed. The inner tunica muscularis mucosa was mounted under 0.2-0.3 g of tension in a tissue bath containing oxygenated Tyrode's solution at 37° C. […] Following a 30 min equilibrium period, tissues were isometrically contracted with carbachol (3 μM) to obtain a tonic contraction. A stable plateau was obtained within 20 min when test compound was added cumulatively to relax the muscle strip. EC50 values were obtained for each agonist in tissues from 5 rats.

antroduodenal motility = details: Van Nueten et al 1989, cited from earlier work
5-HT4 receptor [2] = details: Dumuis et al 1989; mouse embryonic colliculi neurons; cited from earlier work
myenteric neurons = details: Nemeth and Gullikson; cited from earlier work
gastric emptying = details: cited from earlier work; for gastric emptying: Gidda et al 1988; for gastric emptying rates in vivo: Buchheit et al 1985
GI transit = details: cited from earlier work
5-HT4 receptors = details: Craig and Clarke; cited from earlier work
GI tract = details: various animal models; cited from earlier work
[3] = test system: guinea pig stomach strips; details: cited from earlier work; for guinea pig stomach muscle strip contraction in vitro: Buchheit et al 1985
[4] = test system: 5-HT3-mediated Bezold Jarisch reflex; details: in vivo; cited from earlier work
charcoal meal transit = details: Kimura et al 1989; cited from earlier work

T2 sequence (Q62758 whole entry): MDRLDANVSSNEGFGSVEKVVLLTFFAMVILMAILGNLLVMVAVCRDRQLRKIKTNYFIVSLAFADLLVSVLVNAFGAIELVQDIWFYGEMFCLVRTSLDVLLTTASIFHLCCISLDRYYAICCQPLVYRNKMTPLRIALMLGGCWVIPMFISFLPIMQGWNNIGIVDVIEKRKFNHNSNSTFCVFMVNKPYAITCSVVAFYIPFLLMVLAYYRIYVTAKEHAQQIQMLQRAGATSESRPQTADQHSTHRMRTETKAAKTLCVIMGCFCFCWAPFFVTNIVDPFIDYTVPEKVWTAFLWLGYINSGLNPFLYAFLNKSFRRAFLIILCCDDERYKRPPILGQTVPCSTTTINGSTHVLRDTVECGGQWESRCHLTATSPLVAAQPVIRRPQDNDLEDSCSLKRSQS

Cc1nc[nH]c1CCC(=O)c1cn(C)c2ccccc12 [[^3 H]-GR65630]
% Specific Binding (5-HT3 receptor; radioligand, non-specific binding with 1 uM ICS 205-930): 70%
Bmax (5-HT3 receptor; radioligand, rat brain cortex membranes): 154 fmol/mg protein

COc1cc(N)c(Cl)cc1C(=O)NC[C@@H]1[C@@H]2C[C@@H]3C[C@H]1N(C3)C2 (relative stereo) [Example 2, 4-amino-5-chloro-N-(hexahydro-2β,6β-methano-1H,7aα-pyrrolizin-1β-ylmethyl)-2-methoxybenzamide]
EC50 (5-HT4 receptor [1]): 415 nM

COc1cc(N)c(Cl)cc1C(=O)NC1CCN(CCCOc2ccc(F)cc2)CC1OC (stereo not shown) [Cisapride]
antroduodenal motility in dogs (antroduodenal motility): enhanced antroduodenal motility in dogs
agonist activity at 5-HT4 receptor (5-HT4 receptor [2]): agonist activity
ability to depolarize myenteric neurons versus 5-HT3 antagonism (myenteric neurons): unrelated to their properties of 5-HT3 antagonism

Cc1nccn1CC1CCc2c(c3ccccc3n2C)C1=O (stereo not shown) [GR38032]
gastric emptying (gastric emptying): enhanced gastric emptying
GI transit in man (GI transit; Gore et al 1990): failed to accelerate GI transit
colonic transit in man (GI transit; Gore et al 1990): slowed colonic transit in man
small intestinal transit times or mouth-to-cecum transit times (GI transit; Talley et al 1989, man): did not alter small intestinal transit times or mout-to-cecum transit times

NCCc1c[nH]c2ccc(O)cc12 [Serotonin, 5-hydroxytryptamine]
peristaltic reflex evoked, mediated through agonism at 5-HT4 receptors (5-HT4 receptors): mediated through agonism at 5-HT4 receptors
peristalsis in the GI tract (GI tract): promote peristalsis in the GI tract

COc1cc(N)c(Cl)cc1C(=O)NC[C@H]1[C@@H]2C[C@@H]3C[C@H]1N(C3)C2 [Example 4, 4-amino-5-chloro-N-(hexahydro-2β,6β-methano-1H,7aα-pyrrolizin-1R,1α-ylmethyl)-2-methoxybenzamide]
EC50 (5-HT4 receptor [1]): 274 nM

COc1cc(N)c(Cl)cc1C(=O)NC[C@@H]1[C@H]2C[C@H]3C[C@@H]1N(C3)C2 [Example 3, 4-amino-5-chloro-N-(hexahydro-2β,6β-methano-1H,7aα-pyrrolizin-1S,1α-ylmethyl)-2-methoxybenzamide]
EC50 (5-HT4 receptor [1]): 140 nM

CN1[C@@H]2CC[C@H]1C[C@@H](OC(=O)c1c[nH]c3ccccc13)C2 [ICS 205-930]
guinea pig stomach muscle strip contraction in vitro [3]: enhanced guinea pig stomach muscle strip contraction in vitro
gastric emptying rates in vivo (gastric emptying): increases in gastric emptying rates in vivo
gastric emptying (gastric emptying): enhanced gastric emptying
effect on the responses to cisapride when coadministered (antroduodenal motility; dogs): did not affect the responses to cisapride

COc1cc(N)c(Cl)cc1C(=O)NC1CCN2CCCC1C2 (stereo not shown) [BRL-24924]
agonist activity at 5-HT4 receptor (5-HT4 receptor [2]): agonist activity
peristaltic reflex evoked, mediated through agonism at 5-HT4 receptors (5-HT4 receptors): mediated through agonism at 5-HT4 receptors
ability to depolarize myenteric neurons versus 5-HT3 antagonism (myenteric neurons): unrelated to their properties of 5-HT3 antagonism

CCN(CC)CCNC(=O)c1cc(Cl)c(N)cc1OC [metoclopramide]
guinea pig stomach muscle strip contraction in vitro [3]: enhanced guinea pig stomach muscle strip contraction in vitro
electrical-field stimulated contractions in guinea pig stomach strips ([3]; Gunning and Naylor 1985): enhanced electrical-field stimulated contractions in guinea pig stomach strips
gastric emptying rates in vivo (gastric emptying): increases in gastric emptying rates in vivo
block of the 5-HT3-mediated Bezold Jarisch reflex [4]: blocks the 5-HT3-mediated Bezold Jarisch reflex

COc1cc(N)c(Cl)cc1C(=O)NC1CN2CCC1CC2 (stereo not shown) [zacopride]
gastric emptying (gastric emptying): enhanced gastric emptying

COc1cc(N)c(Cl)cc1C(=O)NC[C@@H]1[C@H]2C[C@H]3C[C@@H]1N(C3)C2 (relative stereo) [Example 1, 4-amino-5-chloro-N-(hexahydro-2β,6β-methano-1H,7aα-pyrrolizin-1β-ylmethyl)-2-methoxybenzamide]
EC50 (5-HT4 receptor [1]): 175 nM
Ki (5-HT3 receptor; read-out: Ki, effect of compounds on [3H]-GR65630 bound, Table II, 0.2 nM [3H]-GR65630, 66 minutes, 22° C.): 5.5 nM

CN1[C@@H]2CC[C@H]1C[C@@H](OC(=O)c1cc(Cl)cc(Cl)c1)C2 [MDL 72222]
guinea pig stomach muscle strip contraction in vitro [3]: enhanced guinea pig stomach muscle strip contraction in vitro
gastric emptying rates in vivo (gastric emptying): increases in gastric emptying rates in vivo

Cc1nccn1CC1CCc2c(c3ccccc3n2C)C1=O.Cl.O.O (stereo not shown) [SN-307]
transit of a charcoal meal in mice (charcoal meal transit): enhanced transit of a charcoal meal in mice
